Laboratory results: PMC9105102, “Development and Biochemical Characterization of Self-Immolative Linker Containing GnRH-III-Drug Conjugates” (International Journal of Molecular Sciences, 2022)

How the values were obtained:
[1] = test system: A2780 human ovarian cancer cells; test: cells; format: cell-based; conditions: A2780 cells; treatment 24 h (Dau conjugates) or 6 h (PTX compounds), viability at 72 h; mean ± SE of two to three determinations; read-out: A2780 IC50
Procedure: (§1) For cultivation of A2780 human ovarian and Panc-1 human pancreatic cancer cells, RPMI-1640 medium with 10% FBS, L-glutamine and 1% Penicillin-Streptomycin were used. Cells were cultured in appropriate plastic flasks at 37 °C (humidified atmosphere, 5% CO2/95% air).
(§2) A set-up of 96-well plates was used to study the in vitro antiproliferative activity. Therefore, 5 × 10^3 cells in 100 µL complete medium were seeded to each well. After 24 h, complete medium was removed and cells were treated with 200 µL bioconjugate solution in serum-free medium (concentration range 0.0032–50 µM, control wells were treated with serum-free medium). Medium was taken out after 6 h treatment (PTX conjugates) or 24 h (Dau conjugates), replaced by complete medium and incubation was continued. To determine the cell viability, medium was removed after 72 h and 100 µL resazurin solution [45] (10% Tox-8 in FBS-free medium) was added to each well, followed by additional incubation of 2–3 h. A Tecan infinite 200 pro microplate reader (Tecan Group Ltd., Zürich, Switzerland) was used for fluorescence detection (λEx = 560 and λEm = 590 nm). Experiments were performed at least twice, using three parallels per concentration. The cell viability (and IC50 values) was calculated with GraphPad Prism using a nonlinear regression (sigmoidal dose-response).

[2] = test system: Panc-1 human pancreatic cancer cells; test: cells; format: cell-based; conditions: Panc-1 cells; treatment 24 h (Dau conjugates) or 6 h (PTX compounds), viability at 72 h; mean ± SE of two to three determinations; read-out: Panc-1 IC50
Procedure: as §1, §2

[3] = Degradation of drug conjugates in presence of rat liver lysosomal homogenate (LC-MS); format: in vitro ADME; conditions: pH 5, 37 °C; for release of free Dau by lysosomal enzymes: up to 24 h; for release of free Dau by lysosomal enzymes / release of the smallest Dau-containing metabolite H-Lys(Dau-glutaryl)-OH: LC-MS
Procedure: The preparation of the rat liver lysosomal homogenate was carried out as recently reported. A Qubit Protein Assay Kit (Thermo Fischer Scientific, Waltham, MA, USA) was used to examine the concentration of the lysosomal proteins.
Initially, a stock solution of the GnRH-III-Dau conjugates in water (5 µg/µL) was prepared. For the degradation reaction, the conjugates and the lysosomal homogenate were diluted together in 0.2 M NaOAc buffer (pH 5) to a concentration of 0.25 µg/µL each. These mixtures were kept at 37 °C and at distinct time points (5 min, 1 h, 2 h, 4 h, 8 h and 24 h), 15 µL of each sample were quenched with 2 µL acetic acid and analyzed by LC-MS (System I).
The GnRH-III-PTX conjugates were dissolved in DMSO to a concentration of 10 mM. The reaction was carried out in 0.2 M NaOAc buffer (pH 5) with 10 µM conjugate and 0.025 µg/mL lysosomal homogenate. The reaction mixtures were incubated at 37 °C and aliquots of 60 μL were taken at 5 min, 1 h, 2 h, 4 h, 8 h and 24 h and quenched with 5 μL of acetic acid. The analysis of the samples was performed by LC–MS (System-II).

[4] = target: T1, GnRH-R (membranes of human pituitary) (Homo sapiens, UniProt P30968); test: Radioligand competition assay, displacement of [125I]-GnRH-I-[6D-Trp] (triptorelin), human pituitary membranes; format: binding
T1 construct: GnRH-Rs expressed on human pituitary and human prostate cancer cells; from tissue; host or cells: normal human pituitary (anterior lobe), autopsy; membrane homogenate
T1 sequence (P30968 1-328): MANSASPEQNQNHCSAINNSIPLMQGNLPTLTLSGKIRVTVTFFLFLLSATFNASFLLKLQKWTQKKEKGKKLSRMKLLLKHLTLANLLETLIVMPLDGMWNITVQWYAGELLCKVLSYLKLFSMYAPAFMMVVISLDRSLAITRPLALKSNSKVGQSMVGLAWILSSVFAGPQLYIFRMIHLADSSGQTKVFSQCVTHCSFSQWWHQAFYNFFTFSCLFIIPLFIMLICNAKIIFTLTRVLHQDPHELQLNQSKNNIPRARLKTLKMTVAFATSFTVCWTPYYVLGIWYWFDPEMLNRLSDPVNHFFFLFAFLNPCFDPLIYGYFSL
Procedure: (§3) A ligand competition assay with [^125I]-GnRH-I-[^6D-Trp] as radioligand was performed to examine the binding affinity of the GnRH-III-drug conjugates to GnRH-Rs expressed on human pituitary and human prostate cancer cells. Human prostate cancer cells were derived from patients at the time of initial surgical treatment, while tissue samples from normal human pituitary (anterior lobe) were obtained by autopsy. All subjects were informed and gave their consent for inclusion before they participated in the study. The preparation of the cell membranes was carried out according to the literature. The chloramines-T method was used to prepare radioiodinated GnRH-I agonist triptorelin which was purified by RP-HPLC [10, 38, 39, 47]. The displacement of [^125I]-GnRH-I-[^6D-Trp] was studied in an in vitro ligand competition assay to determine the binding affinities of the non-radio-labeled GnRH-III bioconjugates to GnRH-RI [10, 11, 38, 39]. Membrane homogenates containing […] protein were incubated in duplicate or triplicate with 60–80,000 cpm [^125I]-GnRH-I-[^6D-Trp] and rising concentration (1 pM—1 µM) of nonradioactive bioconjugates as competitors in a total volume of […] binding buffer. Protein concentration was determined by the method of Bradford using a Bio-Rad protein assay kit (Bio-Rad Laboratories, Hercules, CA, USA). The LIGAND-PC computerized curve-fitting program of Munson and Rodbard was used to determine the receptor binding characteristics and IC50 values.

[5] = target: T2, GnRH-R (membranes of human prostate cancer specimens) (Homo sapiens, UniProt P30968); test: Radioligand competition assay, displacement of [125I]-GnRH-I-[6D-Trp] (triptorelin), human prostate cancer membranes; conditions: mean ± SE of two to three determinations, read-out: IC50 Prostate Cancer, competitive inhibition of [125I][6D-Trp]-GnRH-I binding
T2 construct: GnRH-Rs expressed on human pituitary and human prostate cancer cells; from tissue; host or cells: human prostate cancer specimens from patients (surgery); membrane homogenate
T2 sequence (P30968 1-328): T1 sequence (P30968 1-328)
Procedure: as §3

[6] = Solubility in acidic aqueous buffer (remark); format: physicochemical; conditions: compared with the ΔHis-D-Tic compounds

Row | SMILES | IC50 [1] [nM] | IC50 [2] [nM] | release of free Dau by lysosomal enzymes [3] | IC50 [4] [nM] | IC50 [5] [nM] | solubility in acidic aqueous buffer [6] | release of the smallest Dau-containing metabolite H-Lys(Dau-glutaryl)-OH [3] | detection of the diamine-PTX fragment ([3]; even after 24 h of incubation)
1 | CCCC(=O)NCCCC[C@H](NC(=O)[C@H](Cc1c[nH]c2ccccc12)NC(=O)[C@H](Cc1c[nH]cn1)NC(=O)[C@@H]1CCC(=O)N1)C(=O)N[C@@H](Cc1c[nH]cn1)C(=O)N[C@@H](CC(=O)O)C(=O)N[C@@H](Cc1c[nH]c2ccccc12)C(=O)N[C@@H](CCCCNC(=O)CCCC(=O)N[C@H](C(=O)N[C@@H](CCCNC(N)=O)C(=O)Nc1ccc(COC(=O)N[C@H]2C[C@H](O[C@H]3C[C@](O)(C(C)=O)Cc4c(O)c5c(c(O)c43)C(=O)c3c(OC)cccc3C5=O)O[C@@H](C)[C@H]2O)cc1)C(C)C)C(=O)N1CCC[C@H]1C(=O)NCC(N)=O [compound 10] | 11200 ± 380 | 85600 ± 24300 | release of free Dau and the formation of several peptide fragments could be confirmed | 16.1 ± 2.03 | 13.7 ± 1.87 | better solubility |  | 
2 | CCCC(=O)NCCCC[C@H](NC(=O)[C@H](Cc1c[nH]c2ccccc12)NC(=O)[C@H](Cc1c[nH]cn1)NC(=O)[C@@H]1CCC(=O)N1)C(=O)N[C@@H](Cc1c[nH]cn1)C(=O)N[C@@H](CC(=O)O)C(=O)N[C@@H](Cc1c[nH]c2ccccc12)C(=O)N[C@@H](CCCCNC(=O)CCCC(=O)N[C@H](C(=O)N[C@@H](C)C(=O)Nc1ccc(COC(=O)N[C@H]2C[C@H](O[C@H]3C[C@](O)(C(C)=O)Cc4c(O)c5c(c(O)c43)C(=O)c3c(OC)cccc3C5=O)O[C@@H](C)[C@H]2O)cc1)C(C)C)C(=O)N1CCC[C@H]1C(=O)NCC(N)=O [compound 12] | 7480 ± 660 | 56200 ± 17300 | release of free Dau and the formation of several peptide fragments could be confirmed | 17 ± 1.04 | 15.5 ± 0.83 | better solubility |  | 
3 | CCCC(=O)NCCCC[C@H](NC(=O)[C@H](Cc1c[nH]c2ccccc12)NC(=O)[C@H](Cc1c[nH]cn1)NC(=O)[C@@H]1CCC(=O)N1)C(=O)N[C@@H](Cc1c[nH]cn1)C(=O)N[C@@H](CC(=O)O)C(=O)N[C@@H](Cc1c[nH]c2ccccc12)C(=O)N[C@@H](CCCCNC(=O)CCCC(=O)N[C@H]1C[C@H](O[C@H]2C[C@](O)(C(C)=O)Cc3c(O)c4c(c(O)c32)C(=O)c2c(OC)cccc2C4=O)O[C@@H](C)[C@H]1O)C(=O)N1CCC[C@H]1C(=O)NCC(N)=O [compound 23] | 67900 ± 25400 | > 100000 | free Dau could not be detected | 9.7 ± 1.07 | 8.61 ± 1.08 |  | confirming the release | 
4 | CCCC(=O)NCCCC[C@H](NC(=O)[C@H]1Cc2ccccc2CN1C(=O)[C@@H]1CCC(=O)N1)C(=O)N[C@@H](Cc1c[nH]cn1)C(=O)N[C@@H](CC(=O)O)C(=O)N[C@@H](Cc1c[nH]c2ccccc12)C(=O)N[C@@H](CCCCNC(=O)CCCC(=O)N[C@H]1C[C@H](O[C@H]2C[C@](O)(C(C)=O)Cc3c(O)c4c(c(O)c32)C(=O)c2c(OC)cccc2C4=O)O[C@@H](C)[C@H]1O)C(=O)N1CCC[C@H]1C(=O)NCC(N)=O [compound 24] | 48140 ± 470 | > 100000 | free Dau could not be detected | 36.3 ± 3.17 | 42.7 ± 7.04 |  | confirming the release | 
5 | CCCC(=O)NCCCC[C@H](NC(=O)[C@H]1Cc2ccccc2CN1C(=O)[C@@H]1CCC(=O)N1)C(=O)N[C@@H](Cc1c[nH]cn1)C(=O)N[C@@H](CC(=O)O)C(=O)N[C@@H](Cc1c[nH]c2ccccc12)C(=O)N[C@@H](CCCCNC(=O)CCCC(=O)N(C)CCN(C)C(=O)O[C@@H](C(=O)O[C@H]1C[C@@]2(O)[C@@H](OC(=O)c3ccccc3)[C@@H]3[C@]4(OC(C)=O)CO[C@@H]4C[C@H](O)[C@@]3(C)C(=O)[C@H](OC(C)=O)C(=C1C)C2(C)C)[C@@H](NC(=O)c1ccccc1)c1ccccc1)C(=O)N1CCC[C@H]1C(=O)NCC(N)=O [compound 26] | > 100000 | > 100000 |  | 23.4 ± 1.67 | 22.2 ± 0.96 |  |  | could not be detected
